Assay [1] concerns Vigna mungo. Put plainly: Root formation-promoting activity in Vigna mungo (black gram) cuttings at 1 x 10^-4 M relative to IBA (reference value: 35 +/- 8%). It counts as functional.
Assay [2] relates to Brassica rapa subsp. pekinensis. Kind of assay: Relative growth inhibitory activity of Brassica rapa subsp. pekinensis (Chinese cabbage) hypocotyl at 1 x 10^-7 to 1 x 10^-4 M.
Assay [3] deals with Vigna mungo. Kind of assay: Enhancement of hypocotyl swelling in intact Vigna mungo (black gram) seedlings at 1 x 10^-6 M. It counts as functional, organism-based.
The subject of assay [4] is Vigna mungo. Put plainly: Induction of callus formation on Vigna mungo (black gram) seedlings at 3 x 10^-5 M after 3 days. In kind it is functional, organism-based.
Assay [5] relates to Vigna mungo. Kind of assay: Enhancement of lateral root formation in intact Vigna mungo (black gram) seedlings at 1 x 10^-6 M. In kind it is functional, organism-based.
Assay [6] concerns Brassica rapa subsp. pekinensis. Put plainly: Ratio of IAA activity to compound activity for growth inhibition of Brassica rapa subsp. pekinensis (Chinese cabbage) hypocotyl at 1 x 10^-7 to 1 x 10^-4 M. It counts as functional.
The subject of assay [7] is Vigna mungo. Put plainly: Enhancement of hypocotyl swelling in intact Vigna mungo (black gram) seedlings at 3 x 10^-4 M. It counts as functional, organism-based.
The test system of assay [8] is Brassica rapa subsp. pekinensis. Kind of assay: Growth inhibition of Brassica rapa subsp. pekinensis (Chinese cabbage) hypocotyl at 1 x 10^-7 to 1 x 10^-4 M. In kind it is functional.
The test system of assay [9] is Vigna mungo. Kind of assay: Induction of callus formation on Vigna mungo (black gram) seedlings at > 3 x 10^-3 M after 3 days. It counts as functional, organism-based.
The subject of assay [10] is Vigna mungo. Put plainly: Ratio of compound activity to IBA activity for root formation-promoting activity in Vigna mungo (black gram) cuttings at 1 x 10^-4 M. It counts as functional.
Assay [11] concerns Vigna mungo. Kind of assay: Enhancement of lateral root formation in intact Vigna mungo (black gram) seedlings at 3 x 10^-4 M. It counts as functional, organism-based.
The subject of assay [12] is Vigna mungo. Put plainly: Enhancement of hypocotyl swelling in intact Vigna mungo (black gram) seedlings at 1 x 10^-4 M. In kind it is functional, organism-based.
Assay [13] deals with Vigna mungo. Put plainly: Enhancement of lateral root formation in intact Vigna mungo (black gram) seedlings at 1 x 10^-4 M. It counts as functional, organism-based.
Assay [14] deals with Vigna mungo. Put plainly: Enhancement of hypocotyl swelling in intact Vigna mungo (black gram) seedlings at 3 x 10^-6 M. It counts as functional, organism-based.
The subject of assay [15] is Vigna mungo. Put plainly: Enhancement of lateral root formation in intact Vigna mungo (black gram) seedlings at 3 x 10^-6 M. It counts as functional, organism-based.

The structures appear in SMILES notation. The source made the active and inactive calls. The rule behind the calls is not given here.

For `O=C(O)CCCc1c[nH]c2ccccc12`, the Activity in the assay with Vigna mungo [1] amounted to 100%.
For the compound `O=C(O)Cc1c[nH]c2cccc(Cl)c12`, the “relative activity (%)” value in assay [2] was determined as 6%. In the assay with Vigna mungo [1], this compound registered an Activity of 384%. In addition, the outcome in the assay on Vigna mungo [3], with Vigna mungo [4] and in the assay on Vigna mungo [5] was Active.
In the case of `O=C(O)Cc1c[nH]c2cccc(C(F)(F)F)c12`, the Ratio in [6] was 6; with Vigna mungo [10] it was 1.5. This compound also gave an Activity in the assay with Vigna mungo [1] of 156%. Further, the outcome in the assay on Vigna mungo [7], in the assay with Vigna mungo [9] and in the assay with Vigna mungo [11] was Active. In addition, the “growth inhibition (GI)” value in [8] was “Active”.
For `O=C(O)Cc1c[nH]c2ccccc12` [INDOLE-3-ACETIC ACID], the outcome with Vigna mungo [12] and in the assay on Vigna mungo [13] was Active. The compound further came in with an Activity in the assay with Vigna mungo [1] of 36%.
As for `Cc1cccc2[nH]cc(CC(=O)O)c12`, the “relative activity (%)” value in assay [2] was found to be 40%. Further, the result in the assay with Vigna mungo [14], in the assay on Vigna mungo [15] and with Vigna mungo [4] was Active. The same compound yielded an Activity in the assay on Vigna mungo [1] of 70%.

Values taken from ChEMBL document CHEMBL3046868, “Synthesis and biological activities of 4-trifluoromethylindole-3-acetic acid: a new fluorinated indole auxin” (2008).
